According to patent US8026362B2, “Non-nucleoside reverse transcriptase inhibitors” (Roche Palo Alto LLC, priority 2007, dated 2011):

Legend:
[1] = tested on: HXB2-strain of HIV in MT4 cells; assay: Antiviral assay: protection of HIV-infected MT4 cells from cell death (MTT); type: cell-based; conditions: Human immunodeficiency virus 1, 120 h; MT4 cells infected with HXB2-strain of HIV, 5 days, MTT viability
Description: Anti-HIV antiviral activity was assessed using an adaptation of the method of Pauwels et al. {Pauwels et al., J Virol Methods 1988 20:309-321}. The method is based on the ability of compounds to protect HIV-infected T lymphoblastoid cells (MT4 cells) from cell-death mediated by the infection. The endpoint of the assay was calculated as the concentration of compound at which the cell viability of the culture was preserved by 50% (‘50% inhibitory concentration’, IC50). The cell viability of a culture was determined by the uptake of soluble, yellow 3-[4,5-dimethylthiazol-2-yl]-2,5-diphenyltetrazolium bromide (MTT) and its reduction to a purple insoluble formazan salt. After solubilization, spectrophotometric methods were employed to measure the amount of formazan product. […]
A fresh solution of 5 mg/mL MTT was prepared in 0.01 M phosphate buffered saline, pH 7.2 and 20 microliters added to each culture. […] When the formazan deposit was fully solubilized by further mixing, the absorbance (OD) of the cultures was measured at 540 nm and 690 nm wavelength (690 nm readings were used as blanks for artifacts between wells). The percent protection for each treated culture was then calculated from the equation: […]

[2] = biological target: HIV-1 RT (Human immunodeficiency virus type 1 group M subtype B, UniProt P04585); assay: HIV-1 Reverse Transcriptase Assay (RNA-dependent DNA polymerase activity, SPA); type: biochemical; conditions: 30° C., 30 min, 10% DMSO
Description: RNA-dependent DNA polymerase activity was measured using a biotinylated primer oligonucleotide and tritiated dNTP substrate. Newly synthesized DNA was quantified by capturing the biotinylated primer molecules on streptavidin coated Scintillation Proximity Assay (SPA) beads (Amersham). The sequences of the polymerase assay substrate were: 18 nt DNA primer, 5′-Biotin/GTC CCT GTT CGG GCG CCA-3′; 47 nt RNA template, 5′-GGGUCUCUCUGGUUAGACCACUCUAGCAGUGGCGCCCGAACAGGGAC-3′. The biotinylated DNA primer was obtained from the Integrated DNA Technologies Inc. and the RNA template was synthesized by Dharmacon. The DNA polymerase assay (final volume 50 μl) contained 32 nM biotinylated DNA primer, 64 nM RNA substrate, dGTP, dCTP, dTTP (each at 5 μM), 103 nM [^3H]-dATP (specific activity=[…]), in 45 mM Tris-HCl, pH 8.0, 45 mM NaCl, 2.7 mM Mg(CH3COO)2, 0.045% Triton X-100 w/v, 0.9 mM EDTA. The reactions contained 5 ul of serial compound dilutions in 100% DMSO for IC50 determination and the final concentrations of DMSO were 10%. Reactions were initiated by the addition of 30 μl of the HIV-RT enzyme (final concentrations of 1-3 nM). Protein concentrations were adjusted to provide linear product formation for at least 30 min of incubation. After incubation at 30° C. for 30 min, the reaction was quenched by addition of 50 μl of 200 mM EDTA (pH 8.0) and […] SA-PVT SPA beads (Amersham, RPNQ0009, reconstituted in 20 mM Tris-HCl, pH 8.0, 100 mM EDTA and 1% BSA). The beads were left to settle overnight and the SPA signals were counted in a 96-well top counter-NXT (Packard).

Structure (SMILES)	melting point [°C]	IC50 [1] [nM]	IC50 [2] [nM]
Cc1cn(Cc2ccc(Br)c(Oc3cc(Cl)cc(C#N)c3)c2F)c(=O)[nH]c1=O [Compound I-2, 3-[6-Bromo-2-fluoro-3-(5-methyl-2,4-dioxo-3,4-dihydro-2H-pyrimidin-1-ylmethyl)-phenoxy]-5-chloro-benzonitrile]	223.1 to 224.2	3.1	3.9
N#Cc1cc(Cl)cc(Oc2c(Br)ccc(CN3CC(=O)NC3=O)c2F)c1 [Compound I-20, 3-[6-Bromo-3-(2,4-dioxo-imidazolidin-1-ylmethyl)-2-fluoro-phenoxy]-5-chloro-benzonitrile]	131.5 to 132.8	4.2	9
N#Cc1cc(Cl)cc(Oc2c(Br)ccc(Cn3cc(C#N)c(=O)[nH]c3=O)c2F)c1 [Compound I-15, 1-[4-Bromo-3-(3-chloro-5-cyano-phenoxy)-2-fluoro-benzyl]-2,4-dioxo-1,2,3,4-tetrahydro-pyrimidine-5-carbonitrile]	246.9 to 247.8	–	61.2
Cc1cn(CCc2ccc(Br)c(Oc3cc(Cl)cc(C#N)c3)c2F)c(=O)[nH]c1=O [Compound I-14, 3-{6-Bromo-2-fluoro-3-[2-(5-methyl-2,4-dioxo-3,4-dihydro-2H-pyrimidin-1-yl)-ethyl]-phenoxy}-5-chloro-benzonitrile]	198 to 200	–	7
N#Cc1cc(Cl)cc(Oc2c(Cl)ccc(Cn3cc(Cl)c(=O)[nH]c3=O)c2F)c1 [Compound I-18, 3-Chloro-5-[6-chloro-3-(5-chloro-2,4-dioxo-3,4-dihydro-2H-pyrimidin-1-ylmethyl)-2-fluoro-phenoxy]-benzonitrile]	267.2 to 268	–	3.7
